Where “and” joins values, the source holds several entries; their conditions need not be identical. Equal values may be shown once.
Tests used:
[1] = system: Li-Pilo SE; test: Lithium-pilocarpine model (Example 2): mortality and latency to SRS; format: in vivo, rat; parameters: degree of mortality: concentration or dose not given beside the values; settings: for mortality over the first 48 h after SE: early cell counting group; for degree of mortality: latency to SRS / late cell counting group
Experimental: The model induced in rats by pilocarpine associated with lithium (Li-Pilo) reproduces most of the clinical and neurophysiological features of human temporal lobe epilepsy (See, Turski et al., 1989; Synapse 3:154-171; Cavalheiro, 1995, Ital J Neurol Sci 16:33-37). In adult rats, the systemic administration of pilocarpine leads to SE that may last for up to 24 h. The lethality rate reaches 30-50% during the first days. In the surviving animals, neuronal damage predominates within the hippocampal formation, the piriform and entorhinal cortices, thalamus, amygdaloid complex, neocortex and substantia nigra.
In the present study, we tested the effects of different doses of various doses of test compound, i.e. 30, 60, 90 and 120 mg/kg (referred to herein as RWJ30, RWJ60, RWJ90 and RWJ120) using the same design as in the previous study. The treatment was started one hour after the onset of status epilepticus (SE) and the animals were treated with a second injection of the same dose of the drug. This early treatment of SE was followed by a 6 day test compound treatment. This report concerns the effects of the four different doses of test compound on neuronal damage in hippocampus and parahippocampal cortices. The study on the latency to the onset of epilepsy is still incomplete but we will show the data we have got at present which have been performed on a limited group of animals. The latency to spontaneous epileptic seizures was correlated on the same rats to the number of neurons remaining in the areas involved in the circuit of seizures.
Adult male Sprague-Dawley rats provided by Janvier Breeding Center (Le Genest-St-Isle, France) were housed under controlled, uncrowded standard conditions at 20-22° C. (light/dark cycle, 7.00 a.m.-7.00 p.m. lights on), with food and water available ad libitum. All animal experimentation was performed in accordance with the rules of the European Communities Council Directive of Nov. 24, 1986 (86/609/EEC), and the French Department of Agriculture (License No 67-97).
All rats received lithium chloride (3 meq/kg, i.p., Sigma, St Louis, Mo., U.S.A.) and about 20 h later, all animals received also methylscopolamine bromide (1 mg/kg, s.c., Sigma) that was administered to limit the peripheral effects of the convulsant. SE was induced by injecting pilocarpine hydrochloride (25 mg/kg, s.c., Sigma) 30 min after methylscopolamine. The effects of increasing doses of test compound (RWJ) were studied in 5 groups of rats. The animals received either 2.5 mg/kg diazepam, i.m., (DZP), or 30, 60, 90 or 120 mg/kg of test compound (RWJ30, RWJ60, RWJ90, RWJ120), i.p., at 1 h after the onset of SE. The control group received vehicle instead of pilocarpine and test compound. The rats surviving SE were then injected about 10 h after the first test compound injection with a second i.p. injection of 1.25 mg/kg DZP for the DZP group or of the same dose of test compound as in the morning and were maintained under a twice daily test compound treatment for 6 additional days (s.c.) while DZP rats received a vehicle injection. The effects of the four doses of test compound on the latency to occurrence of spontaneous recurrent seizures (SRS) were investigated by daily video recording of the animals for 10 h per day.

[2] = system: Li-Pilo SE; test: Lithium-pilocarpine model (Example 2): quantification of cell densities; format: in vivo, rat; settings: for number of neuronal cell bodies, Dorsal entorhinal, layer II / number of neuronal cell bodies, Dorsal entorhinal, layer III / number of neuronal cell bodies, Piriform, layer II, dorsal / number of neuronal cell bodies, Piriform, layer II, ventral / number of neuronal cell bodies, Piriform, layer III / number of neuronal cell bodies, Ventral entorhinal, layer II / number of neuronal cell bodies, Ventral entorhinal, layers III-IV / number of neuronal cell bodies, hippocampus CA1 area / number of neuronal cell bodies, hippocampus CA3 area / number of neuronal cell bodies, hippocampus Hilus / damage, hilus of dentate gyrus / cell loss, CA1 pyramidal layer: 14 days after SE; for number of neuronal cell bodies, Dorsal entorhinal, layer II / number of neuronal cell bodies, Dorsal entorhinal, layer III / number of neuronal cell bodies, Piriform, layer II, dorsal / number of neuronal cell bodies, Piriform, layer II, ventral / number of neuronal cell bodies, Piriform, layer III / number of neuronal cell bodies, Ventral entorhinal, layer II / number of neuronal cell bodies, Ventral entorhinal, layers III-IV / number of neuronal cell bodies, hippocampus CA1 area / number of neuronal cell bodies, hippocampus CA3 area / number of neuronal cell bodies, hippocampus Hilus: mean ± S.E.M.
Experimental: Quantification of cell densities was performed at two times after SE: a first group was studied 14 days after SE and was composed by 7 DZP, 8 RWJ30, 11 RWJ60, 10 RWJ90, 8 RWJ120 and 8 control rats not subjected to SE. A second group used for the study of the latency to SRS was sacrificed either 8 weeks after the first SRS or at 5 months when no SRS could be seen in that delay and was composed by 7 DZP, 2 RWJ30, 3 RWJ60, 3 RWJ90, 4 RWJ120 rats. Animals were deeply anesthetized with 1.8 g/kg pentobarbital (Dolethal®, Vétoquinol, Lure, France). Brains were then removed and frozen. Serial 20 μm slices were cut in a cryostat, air-dried during several days before thionine staining. Quantification of cell densities was performed with a 10×10 boxes 1 cm^2 microscopic grid on coronal sections according to the stereotaxic coordinates of the rat brain atlas (Paxinos and Watson, 1986, The Rat Brain in Stereotaxic coordinates, 2nd ed. Academic Press, San Diego). The grid of counting was placed on a well-defined area of the cerebral structure of interest and counting was carried out with a microscopic enlargement of 200- or 400-fold defined for each single cerebral structure. Cell counts were performed twice on each side of three adjacent sections for each region by a single observer unaware of the animal's treatment. The number of cells obtained in the 12 counted fields in each cerebral structure was averaged. This procedure was used to minimize the potential errors that could result from double counting leading to overestimation of cell numbers. […] Counts involved only neurons with cell bodies larger than 10 μm. Cells with small cell bodies were considered as glial cells and were not counted.
For neuronal damage, statistical analysis between groups was performed by means of a one-way analysis of variance followed by a post-hoc Scheffe's test using the Statview software.

Compound: NC(=O)OC[C@@H](O)c1ccccc1Cl [test compound]
- latency to spontaneous seizures, individual rats ([1]; 30 mg/kg, two rats): 8 days and 9 days
- first spontaneous seizure after SE, individual rats ([1]; 60 mg/kg, 3 rats): 7 days and 8 days and 38 days
- first spontaneous seizure after SE, individual rats ([1]; 90 mg/kg, 3 rats): 9 days and 10 days and 51 days
- first spontaneous seizure after SE, individual rats ([1]; 120 mg/kg, 2/4 rats with prolonged latency): 79 days and 44 days
- recording time following SE without any seizure ([1]; 120 mg/kg, the two other rats): > 5 months
- mortality over the first 48 h after SE ([1]; RWJ30 (30 mg/kg i.p.)): 43%
- mortality over the first 48 h after SE ([1]; RWJ60 (60 mg/kg i.p.)): 0%
- mortality over the first 48 h after SE ([1]; RWJ90 (90 mg/kg i.p.)): 0%
- mortality over the first 48 h after SE ([1]; RWJ120 (120 mg/kg i.p.)): 47%
- degree of mortality ([1]; RWJ30): 50%
- degree of mortality ([1]; RWJ60): 0%
- degree of mortality ([1]; RWJ90): 0%
- degree of mortality ([1]; RWJ120): 0%
- damage, piriform cortex ventral layer II ([2]; 60 mg/kg): 56%
- cell loss, piriform cortex layer III ([2]; 120 mg/kg): 21%
- damage, piriform cortex ventral layer II ([2]; 120 mg/kg): 9%
- neuroprotection in CA3 pyramidal layer ([2]; 120 mg/kg, difference with DZP not significant): tendency to a slight neuroprotection
- neuroprotection in all layers of the dorsal entorhinal cortex ([2]; 30 and 60 mg/kg): did not afford any neuroprotection
- damage, piriform cortex dorsal layer II ([2]; 60-120 mg/kg): 4-21%
- cell loss, piriform cortex layer III ([2]; 60 and 90 mg/kg (two lower of the 60-120 mg/kg doses)): 53-64%
- cell losses, ventral entorhinal cortex layers III/IV ([2]; 90 and 120 mg/kg): 18-21%
- damage remaining, entorhinal cortex dorsal layers II and III/IV and ventral layer II ([2]; 90 and 120 mg/kg): 4-14%
- number of neuronal cell bodies, Dorsal entorhinal, layer II ([2]; RWJ30 = 30 mg/kg): 23.4 ± 0.8
- number of neuronal cell bodies, Dorsal entorhinal, layer III ([2]; RWJ30 = 30 mg/kg): 21.5 ± 1.3
- number of neuronal cell bodies, Piriform, layer II, dorsal ([2]; RWJ30 = 30 mg/kg): 15.7 ± 3.6
- number of neuronal cell bodies, Piriform, layer II, ventral ([2]; RWJ30 = 30 mg/kg): 7.2 ± 4.6
- number of neuronal cell bodies, Piriform, layer III ([2]; RWJ30 = 30 mg/kg): 1.8 ± 2.3
- number of neuronal cell bodies, Ventral entorhinal, layer II ([2]; RWJ30 = 30 mg/kg): 22.7 ± 1.2
- number of neuronal cell bodies, Ventral entorhinal, layers III-IV ([2]; RWJ30 = 30 mg/kg): 13.2 ± 2.5
- number of neuronal cell bodies, hippocampus CA1 area ([2]; RWJ30 = 30 mg/kg): 39.3 ± 5.0°°
- number of neuronal cell bodies, hippocampus CA3 area ([2]; RWJ30 = 30 mg/kg): 35.7 ± 1.4
- number of neuronal cell bodies, hippocampus Hilus ([2]; RWJ30 = 30 mg/kg): 33.0 ± 4.0
- number of neuronal cell bodies, Dorsal entorhinal, layer II ([2]; RWJ60 = 60 mg/kg): 24.1 ± 0.7
- number of neuronal cell bodies, Dorsal entorhinal, layer III ([2]; RWJ60 = 60 mg/kg): 24.0 ± 0.4
- number of neuronal cell bodies, Piriform, layer II, dorsal ([2]; RWJ60 = 60 mg/kg): 28.9 ± 2.7°°
- number of neuronal cell bodies, Piriform, layer II, ventral ([2]; RWJ60 = 60 mg/kg): 14.8 ± 5.9
- number of neuronal cell bodies, Piriform, layer III ([2]; RWJ60 = 60 mg/kg): 6.9 ± 2.9
- number of neuronal cell bodies, Ventral entorhinal, layer II ([2]; RWJ60 = 60 mg/kg): 23.1 ± 0.7
- number of neuronal cell bodies, Ventral entorhinal, layers III-IV ([2]; RWJ60 = 60 mg/kg): 17.8 ± 2.8
- number of neuronal cell bodies, hippocampus CA1 area ([2]; RWJ60 = 60 mg/kg): 31.9 ± 4.4
- number of neuronal cell bodies, hippocampus CA3 area ([2]; RWJ60 = 60 mg/kg): 31.6 ± 2.1
- number of neuronal cell bodies, hippocampus Hilus ([2]; RWJ60 = 60 mg/kg): 32.8 ± 5.4
- number of neuronal cell bodies, Dorsal entorhinal, layer II ([2]; RWJ90 = 90 mg/kg): 26.3 ± 0.9
- number of neuronal cell bodies, Dorsal entorhinal, layer III ([2]; RWJ90 = 90 mg/kg): 25.4 ± 1.3
- number of neuronal cell bodies, Piriform, layer II, dorsal ([2]; RWJ90 = 90 mg/kg): 32.4 ± 1.3°
- number of neuronal cell bodies, Piriform, layer II, ventral ([2]; RWJ90 = 90 mg/kg): 18.4 ± 5.1
- number of neuronal cell bodies, Piriform, layer III ([2]; RWJ90 = 90 mg/kg): 9.0 ± 4.1
- number of neuronal cell bodies, Ventral entorhinal, layer II ([2]; RWJ90 = 90 mg/kg): 26.7 ± 0.9°°
- number of neuronal cell bodies, Ventral entorhinal, layers III-IV ([2]; RWJ90 = 90 mg/kg): 23.7 ± 1.7°
- number of neuronal cell bodies, hippocampus CA1 area ([2]; RWJ90 = 90 mg/kg): 47.7 ± 5.4°
- number of neuronal cell bodies, hippocampus CA3 area ([2]; RWJ90 = 90 mg/kg): 35.1 ± 1.0
- number of neuronal cell bodies, hippocampus Hilus ([2]; RWJ90 = 90 mg/kg): 37.5 ± 5.2**°
- number of neuronal cell bodies, Dorsal entorhinal, layer II ([2]; RWJ120 = 120 mg/kg): 27.3 ± 0.5
- number of neuronal cell bodies, Dorsal entorhinal, layer III ([2]; RWJ120 = 120 mg/kg): 26.4 ± 0.9
- number of neuronal cell bodies, Piriform, layer II, dorsal ([2]; RWJ120 = 120 mg/kg): 35.2 ± 1.3°
- number of neuronal cell bodies, Piriform, layer II, ventral ([2]; RWJ120 = 120 mg/kg): 30.5 ± 1.5°
- number of neuronal cell bodies, Piriform, layer III ([2]; RWJ120 = 120 mg/kg): 15.0 ± 2.5°°
- number of neuronal cell bodies, Ventral entorhinal, layer II ([2]; RWJ120 = 120 mg/kg): 25.1 ± 0.7
- number of neuronal cell bodies, Ventral entorhinal, layers III-IV ([2]; RWJ120 = 120 mg/kg): 24.5 ± 1.6°
- number of neuronal cell bodies, hippocampus CA1 area ([2]; RWJ120 = 120 mg/kg): 65.5 ± 2.9°
- number of neuronal cell bodies, hippocampus CA3 area ([2]; RWJ120 = 120 mg/kg): 39.8 ± 1.5
- number of neuronal cell bodies, hippocampus Hilus ([2]; RWJ120 = 120 mg/kg): 44.8 ± 3.6
- damage, hilus of dentate gyrus ([2]; RWJ30, 60 and 90 groups): 62-66%
- cell loss, CA1 pyramidal layer ([2]; RWJ30, 60 or 90 rats): 36-57%
- neuroprotection in piriform cortex ([2]; RWJ30 dose): did not protect any layer
- cell loss, CA1 pyramidal layer ([2]; RWJ120): 13%
- damage, hilus of dentate gyrus ([2]; RWJ120): 54%
- damage, piriform cortex ventral layer II ([2]; second dose of 'the 60 and 120 mg/kg RWJ dose' as printed): 45%

— patent US20080103198A1, “METHODS FOR TREATMENT OF COCHLEAR AND VESTIBULAR DISORDERS” (priority 2006, published 2008)
